Measurements: patent publication US20240271138A1, “METHODS AND COMPOSITIONS FOR MODULATING STING SIGNALING AND INNATE IMMUNE RESPONSES” (The Broad Institute, Inc., priority 2021, published 2024)

What was measured:
[1] = test system: STING-mNeonGreen; experiment: STING degradation in 293T STING-mNeonGreen reporter cell line by flow cytometry; conditions: 293T STING-mNG; 4 μg/mL 2′3′-cGAMP(pS)2; 0.5 μM MLN7243; FIGS. 5A-5B
Method: MLN7243 (Selleckchem) was used at 0.5 μM in all experiments. All cell lines were pre-treated for one hour before cGAMP stimulation. […] Cells were stimulated with 300 μL cGAMP permeabilization buffer containing 0.5 μg/mL 2′3′-cGAMP for 10 minutes, washed with 3 mL of medium, and medium was then replaced. MLN7243 was added again after medium replacement. Cells were stimulated for the indicated times.
Cells were then washed twice with Cytoperm and resuspended in FACS buffer for flow cytometry. Acquisition was performed on a Cytoflex S or Cytoflex LX (Beckman Coulter). Data was analyzed with FlowJo (BD).

[2] = test system: BJ1 fibroblasts; experiment: Immunoblot of STING signaling in BJ1 fibroblasts stimulated with cGAMP; assay type: cell-based, human; conditions: cGAMP 2 hours, 0.5 μM MLN7243, FIG. 5D
Method: MLN7243 was added again after medium replacement. Cells were stimulated for the indicated times.
Samples for pull-downs or immunoprecipitations were treated as described in the corresponding paragraphs. For experiments involving seeding of cells in 6 well plates or 24 well plates (293 Ts and hTert-BJ1), one well per condition was harvested, lysed in RIPA buffer (Boston Bioproducts) containing complete, Mini, EDTA-free Protease Inhibitor Cocktail (Millipore Sigma) and PhosSTOP (Millipore Sigma) for 10 minutes on ice. Lysates were cleared by centrifugation at 16000 g for 10 minutes at 4° C. and Laemmli 6×, Sample buffer, SDS, and reducing agents (Boston Bioproducts) were added prior to loading. Samples were run on NuPAGE 4 to 12%, Bis-Tris Gels (Thermo Fisher) and transferred on nitrocellulose membrane with an iBlot2 (Thermo Fisher). Membranes were blocked in 5% non-fat milk in TBS Tween. Antibodies against phospho-proteins were incubated in 5% BSA TBS tween. ECL signal was recorded on a ChemiDoc Biorad Imager. Data was analyzed with ImageLab (Biorad).

[3] = test system: CD14+ monocytes; experiment: Immunoblot of phospho-STING in CD14+ monocytes from healthy donors; assay type: cell-based, human; conditions: 5 μg/mL 2′3′-cGAMP, 6 hours, MLN7243, FIG. 12K
Description: FIGS. 12A-12O show involvement of ESCRT components in ubiquitination and degradation of STING. […] One representative blot of n=2 independent experiments. […] One representative plot of n=3 technical replicates. […] Each dot represents one technical replicate. Paired t-test, *** p<0.001. […] One representative plot of n=3 independent experiments with n=2 technical replicates per experiment. […] Each dot represents an individual replicate. One-way ANOVA with Dunnet's multiple comparisons. **** p<0.0001, *** p<0.001. […] FIGS. 12G-12J show immunofluorescence in 293T stably expressing STING-HA after stimulation with cGAMP for 2 hours. […] Dashed boxes represent the cropped regions shown in the right panels. One representative field of n≥5 fields in n=2 independent experiments. Scale bar is 10 μm. […] One representative blot of n=3 independent donors in n=2 independent experiments. […] One representative experiment of n=3 independent experiments with n=2 technical replicates. […] Friedman test with Dunn's multiple comparison test. **** p<0.0001, ** p<0.01, ns: not significant.
CD14+ monocytes were isolated from peripheral adult human blood as previously described 1. […]
Samples for pull-downs or immunoprecipitations were treated as described in the corresponding paragraphs. […] ECL signal was recorded on a ChemiDoc Biorad Imager. Data was analyzed with ImageLab (Biorad).

[4] = test system: STING association with ESCRT (HGS, VPS37A) and TBK1; experiment: STING-TurboID proximity biotin labeling and streptavidin pull-down in 293T; assay type: cell-based, human; conditions: 293T STING-TurboID; 3 hours; 0.5 μM MLN7243; FIG. 5C
Method: Generation of cells and stimulation. 293T cells were transduced with pTRIP-hPGK-Blast-2A-STING-TurboID and selected with 15 μg/mL Blasticidin (Invivogen) for one week. To test the construct via pull-down, 0.8 million cells were seeded in a 6 well plate. The following day, cells were permeabilized with 300 μl/well of cGAMP permeabilization buffer [50 mM HEPES (Corning), 100 mM KCl (Thermo Fisher), 3 mM MgCl2 (Thermo Fisher), 0.1 mM DTT (Thermo fisher), 85 mM Sucrose (Thermo Fisher), 0.5 mM ATP (Cayman chemicals), 0.1 mM GTP (Cayman Chemicals), 0.2% BSA (Seracare), 0.001% Digitonin (Promega)| containing 1 μg/mL 2′3′-cGAMP (Invivogen) or water for 10 minutes at 37° C., washed with 3 mL of warm medium and then medium was replaced. For mass-spec, 6 million cells were seeded in a 10 cm dish for each condition. Cells were stimulated with 2.8 mL of cGAMP permeabilization buffer containing 6 μg total of cGAMP per dish. Cells were left stimulating for the desired times and 500 μM biotin (Cayman chemicals) was added in each well 30 minutes prior to harvest. Cells were harvested by trypsinization, washed 3 times in cold PBS and pellets were frozen until processing. For experiments in 6 well plates, 3 wells per condition were harvested. For experiments in 10 cm dishes, one dish per condition was harvested.
Pull-down. […]

Compound: NS(=O)(=O)OC[C@H]1C[C@@H](Nc2ccnc3cc(-c4cccc(SC(F)(F)F)c4)nn23)[C@H](O)[C@@H]1O [MLN7243]
- degradation of STING (% STING-mNG positive cells) [1]: complete block of degradation of STING
- STING degradation [2]: abrogated STING degradation
- lipidated LC3B [2]: induced accumulation of lipidated LC3B
- phospho-STING signaling [2]: increased phospho-STING signaling
- phospho-STING levels [3]: strong increase in phospho-STING levels
- biotin labeling of HGS and VPS37A by STING-TurboID [4]: reduced the biotin labeling of HGS and VPS37A
- biotin labeling of TBK1 by STING-TurboID [4]: unaffected
